Measured values published in patent US5972698A, “Tryptase inhibitor” (Novartis Corporation, priority 1993, dated 1999).
*1 amine or outer side, *2 acyl side, *3 side chain or, on linkers, in order; H or OH if unused. Where a SMILES comes first, the peptide text is derived from it. CO = O=C([*:1])[*:2]

Assays:
[1] = target: Human tryptase; settings: cited from earlier work
[2] = Isoelectric focussing (PhastSystem); format: physicochemical
Description: a) SDS-PAGE and isoelectric focussing (IEF) SDS-PAGEs of the proteins were performed with 15-25% polyacrylamide gels following the procedure of Laemmli [Laemmli, 1970]. The gels were either self-prepared and run in a conventional apparatus or in the PhastSystem (Pharmacia, Sollentuna, Sweden). Isoelectric focussing was also done with the PhastSystem using the isoelectric focussing calibration kit pH 3-10.

[3] = target: Tryptase (human); assay: Inhibition of the amidolytic activity of tryptase / equilibrium dissociation constants (Ki); format: biochemical
Description: h) Inhibitory activity: During the purification procedure the inhibitor was followed by measurements of its effect on the amidolytic activity of tryptase. Therefore, samples were incubated with tryptase (0.59 nM) in 50 mM Tris/HCl (pH 7.6), 150 mM NaCl, 50 μg/ml bovine lung heparin, and 0.1% (w/v) bovine serum albumin for 25 min at 37° C. The assay was started by addition of the substrate tos-Gly-Pro-Arg-pNa at a final concentration of 0.1 mM. The released nitroaniline was monitored spectrometrically at 405 nm for 3.5 min using a UVIKON 930 photometer (Kontron; Eching, Germany).
k) Determination of equilibrium constants: To determine the specificity of the inhibitor, its effect on the amidolytic activity of various serine proteinases (see Tab. 5) was determined. […] The residual enzyme activity was measured after addition of a suitable substrate.
Equilibrium dissociation constants (Ki) for the complexes of the inhibitor with individual proteases were determined essentially as described by Bieth [Bieth, 1980]. Briefly, increasing concentrations of the inhibitor were incubated with a constant concentration of the enzyme; the time necessary to reach equilibration of the enzyme-inhibitor complex was determined for each protease in preliminary experiments. Substrate was then added, and the residual enzyme activity measured. […]

| Molecule | inhibition of tryptase (literature) [1] | further results |
| --- | --- | --- |
| CC(C)[C@H](NC(=O)[C@H](CCCNC(=N)N)NC(=O)N[C@@H](Cc1ccccc1)C(=O)O)C(=O)N[C@H](C=O)CCCNC(=N)N [antipain] ({Phe-CO}-Arg-Val-Arg-aldehyde) | – | Ki values for the complexes with tryptase (literature) [1]: micromolar range |
| CC(=O)N[C@@H](CC(C)C)C(=O)N[C@@H](CC(C)C)C(=O)N[C@H](C=O)CCCNC(=N)N [leupeptin] | – | Ki values for the complexes with tryptase (literature) [1]: micromolar range |
| O=S(=O)(F)Cc1ccccc1 [phenylmethylsulfonyl fluoride] | inhibited | – |
| C1 -esterase inhibitor: naturally occurring antiproteinase | not inhibited | – |
| alpha1 -proteinase inhibitor: naturally occurring antiproteinase | not inhibited | – |
| alpha2 -macroglobulin: naturally occurring antiproteinase | not inhibited | – |
| antithrombin III | not inhibited | – |
| aprotinin | not affected | – |
| ecotin: proteinase inhibitor | not affected | – |
| hirudin | not affected | – |
| rLDTI-C: recombinant form C inhibitor expressed in Saccharomyces cerevisiae with secretion vector pVT102U/alpha and strain S-78 (KKVCACPKILKPVCGSDGRTYANSCIARCNGVSIKSEGSCPTGILN) | – | isoelectric point [2]: > 10 pH; Ki ([3]; Ki for the inhibition of two of the four subunits of the tryptase-tetramer, substrate Tos-Gly-Pro-Arg-pNA, read-out: Ki (second Ki column)): 1.9 nM; maximal inhibition of human tryptase ([3]; substrate tos-Gly-Pro-Arg-pNa): ~ 50% |
| tosyl-L-lysine chloromethyl ketone | inhibited | – |
